Assay results published in US6465519B2, “Uses of modafinil and its D/L enantiomers” (priority 1999, dated 2002).

Key:
[1] = cited from earlier work
[2] = tested on: Young female SD rats; assay: Effect of Modafinil on uterus weight in female rats; format: in vivo; conditions: 200 mg/kg/day for 15 days
Protocol: EXPERIMENTAL ANIMAL: Young female SD rats of 25 days old were used. Food and drug administration was the sane as used in the Example 1.
EXPERIMENTAL PROTOCOL: 15 female rats for control were fed 3% starch paste 2 ml/day for 15 successive days. 15 female rats treated with Modafinil(prepared according to Example 1 in the U.S. Pat. No. 4,177,290) mixed with 3% starch paste for 200 mg/kg/day in 2 ml of starch paste a day. Animals were sacrificed on day 16 and the uterei were taken out. Every fresh uterus was weighed.

[3] = tested on: SD rats of both sexes; assay: Effect of Modafinil on sexual ability in rats; format: in vivo; conditions: 200 mg/kg/day for 15 days
Protocol: EXPERIMENTAL ANIMALS: SD rats of both sexes were used and feeding methods of the drug were the same as in the Example 1.
EXPERIMENTAL PROTOCOL: 15 males and 15 females for control fed with 3% starch paste for 15 days while 15 males and 15 females were is treated with 200 mg/kg/day of Modafinil(prepared according to Example 1 in the U.S. Pat. No. 4,177,290) for 15 days. On day 16 evening, each special cage was distributed by chance with 1 male and 1 female rat couple. For the first 2 hours of coinhabitation, the numbers of sexual intercourse movement of male along with acceptance of female were counted.

[4] = tested on: spermatozoa counts in rats; assay: Effect of Modafinil on spermatogenesis in rats; format: in vivo, SD male rats; conditions: for mean number of spermatozoa per gram weight of sperm ± S.D.: SD male rats, sperm from epididymis tail
Protocol: EXPERIMENTAL ANIMALS: SD male rats, 2 months old, weighing 210 to 260 g, were used for this experiment. All the animals were fed in the laboratory for a week before starting the experiment for accommodative purpose. The animals were distributed randomly into 5 experimental groups, 10 in each group. The room temperature was kept at 20 to 25° C. 4 groups of rats were administrated with Modafinil and 1 group for control.
METHODS AND PROTOCOLS: In treated groups, various doses of Modafinil were given by gavage as 200, 400, 600 and 800 mg/kg/day in rats. Modafinil(prepared according to Example 1 in the U.S. Pat. No. 4,177,290) was mixed with 3% starch paste, 2 ml for each rat per day, gavage feeding for successive 30 days. The controlled animals received the 3% starch paste without drug, with same amount for 30 successive days. The morphology, motility and number of the spermatozoa of the animals in each group were observed and counted. On days 31, all animals were killed. Spermatozoa in the sperm taken from epididymis tail were counted; the testes and prostates were taken out. Histological sections were made and examined under microscope.

## NC(=O)C[S+]([O-])C(c1ccccc1)c1ccccc1 (stereo not drawn) [Modafinil, 2-[(Diphenylmethyl)sulfinyl]-N-Acetamide]
[1]; acetone
  solubility in acetone: sparingly or slightly soluble
[1]; cyclohexane
  solubility in cyclohexane: insoluble
[1]; methanol
  solubility in methanol: sparingly or slightly soluble
[1]; water
  solubility in water: insoluble
[2]
  mean uterus weight relative to controls: 158 % of that in Controls
[2]; fresh uterus on day 16
  mean uterus weight (Mean+S.D.): 0.418 ± 0.082 g
[3]; males and females treated, first 2 hours of coinhabitation on day 16
  number of sexual intercourse (Mean±S.D.): 5.0±1.2 times/2 hours/couple
[3]; rats
  mean number of sexual intercourse relative to control: 161 % of the control
[4]; 200 mg/kg/day by gavage for 30 days
  mean number of spermatozoa per gram weight of sperm ± S.D.: 819.8 ± 295.6 per gram weight of sperm
[4]; 400 mg/kg/day by gavage for 30 days
  mean number of spermatozoa per gram weight of sperm ± S.D.: 1753.8 ± 540.6 per gram weight of sperm
[4]; 600 mg/kg/day by gavage for 30 days
  mean number of spermatozoa per gram weight of sperm ± S.D.: 1706.0 ± 379.9 per gram weight of sperm
[4]; 800 mg/kg/day by gavage for 30 days
  mean number of spermatozoa per gram weight of sperm ± S.D.: 1656.0 ± 165.8 per gram weight of sperm
[4]; Modafinil treated groups versus controls, testes sections
  histological examination: stages of normal spermatogenesis in the seminiferous tubules: more distinct and regular than those in the controls
[4]; Modafinil treated groups, testes sections
  histological examination: cell degeneration during the course of spermatogenesis: No cell degeneration was found
[4]; all Modafinil treated groups (200-800 mg/kg/day, 30 days), rats
  number of spermatozoa and motility: remarkably increased with active motility
